Assay [1] deals with MDA-MB-231 cells. As to the kind of experiment: Cell proliferation assay (CellTiter-Glo), MDA-MB-231. The assay is classed as cell-based. Particulars: Homo sapiens, MDA-MB-231, 72 h, 72 h treatment, Celltiter-Glo luminescence. The essentials: (§1)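 MDA-MB-231 (RPMI-1640/10% FBS) and EVSA-T (MEM/10% FBS) cells, 10000 cells/well, exposed 72 h to compound at […]. Viability read by CellTiter-Glo luminescence after 15 min at room temperature. IC50 from control-normalised curve fitting.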

Assay [2] relates to EVSA-T cells. Kind of assay: Cell proliferation assay (CellTiter-Glo), EVSA-T. The format is cell-based. The note with it: Homo sapiens, EVSA-T, 72 h, 72 h treatment, Celltiter-Glo luminescence. The essentials:
as §1
On the technique in general: In ATP-based viability assays light output follows the ATP content of the culture.

As to `COC(=O)Nc1nc2c(Cc3ccc(F)cc3)cc3c(n2n1)C(C)(C)CN3C(=O)CN1C[C@@H](C)NC[C@@H]1CN1CCOC[C@H]1C` [Compound 234, methyl (4-(4-fluorobenzyl)-8,8-dimethyl-6-(2-((2R,5R)-5-methyl-2-(((R)-3-methylmorpholino)methyl)piperazin-1-yl)acetyl)-7,8-dihydro-6H-pyrrolo[2,3-e][1,2,4]triazolo[1,5-a]pyridin-2-yl)carbamate], the IC50 (as a rule, the point on the concentration scale where inhibition reaches its midpoint) turned out to be 10 nM in assay [1] and 0.7 nM in assay [2].
Consider `C[C@@H]1CN(CC(=O)N2CC(C)(C)c3c2cc(Cc2ccc(F)cc2)c2nc(N4CCN(C)C4=O)nn32)[C@@H](CN2CCOC[C@H]2C)CN1` [Compound 235, 1-(4-(4-fluorobenzyl)-8,8-dimethyl-6-(2-((2R,5R)-5-methyl-2-(((R)-3-methylmorpholino)methyl)piperazin-1-yl)acetyl)-7,8-dihydro-6H-pyrrolo[2,3-e][1,2,4]triazolo[1,5-a]pyridin-2-yl)-3-methylimidazolidin-2-one], for which the IC50 was found to be 38 nM in assay [1] and 1.3 nM in assay [2].
The like results for `C[C@@H]1CN(CC(=O)N2CC(C)(C)c3c2cc(Cc2ccc(F)cc2)c2nn(Cc4cncnc4)c(=O)n32)[C@@H](CN2CCOC[C@H]2C)CN1` [Compound 236, 4-(4-fluorobenzyl)-8,8-dimethyl-6-(2-((2R,5R)-5-methyl-2-(((R)-3-methylmorpholino)methyl)piperazin-1-yl)acetyl)-2-(pyrimidin-5-ylmethyl)-2,6,7,8-tetrahydro-1H-pyrrolo[2,3-e][1,2,4]triazolo[4,3-a]pyridin-1-one] were, in that order, 87 nM and 0.7 nM.
On the same counts, the results for `C[C@@H]1CN(CC(=O)N2CC(C)(C)c3c2cc(Cc2ccc(F)cc2)c2nn(C[C@H]4COCCO4)c(=O)n32)[C@@H](CN2CCOC[C@H]2C)CN1` [Compound 237, 2-(((S)-1,4-dioxan-2-yl)methyl)-4-(4-fluorobenzyl)-8,8-dim ethyl-6-(2-((2R,5R)-5-methyl-2-(((R)-3-methylmorpholino)methyl)piperazin-1-yl)acetyl)-2,6,7,8-tetrahydro-1H-pyrrolo[2,3-e][1,2,4]triazolo[4,3-a]pyridin-1-one] are 46 nM and 1.5 nM.
Consider `CC(=O)N(C)c1nc2c(Cc3ccc(F)cc3)cc3c(n2n1)C(C)(C)CN3C(=O)CN1C[C@@H](C)NC[C@@H]1CN1CCOC[C@H]1C` [Compound 238, N-(4-(4-fluorobenzyl)-8,8-dimethyl-6-(2-((2R,5R)-5-methy 1-2-(((R)-3-methylmorpholino)methyl)piperazin-1-yl)acetyl)-7,8-dihydro-6H-pyrrolo[2,3-e][1,2,4]triazolo[1,5-a]pyridin-2-yl)-N-methylacetamide], for which the IC50 in assay [1] worked out at 31 nM; in assay [2], 1.3 nM.
On the same counts, the results for `C[C@@H]1CN(CC(=O)N2CC(C)(C)c3c2cc(Cc2ccc(F)cc2)c2nc(NC=O)nn32)[C@@H](CN2CCOC[C@H]2C)CN1` [Compound 239, N-(4-(4-fluorobenzyl)-8,8-dimethyl-6-(2-((2R,5R)-5-methyl-2-(((R)-3-methylmorpholino)methyl)piperazin-1-yl)acetyl)-7,8-dihydro-6H-pyrrolo[2,3-e][1,2,4]triazolo[1,5-a]pyridin-2-yl)formamide] are 14 nM and 0.5 nM.
As to `C[C@@H]1CN(CC(=O)N2CC(C)(C)c3c2cc(Cc2ccc(F)cc2)c2nn(CC4(O)CC4)c(=O)n32)[C@@H](CN2CCOC[C@H]2C)CN1` [Compound 240, 4-(4-fluorobenzyl)-2-((1-hydroxycyclopropyl)methyl)-8,8-dimethyl-6-(2-((2R,5R)-5-methyl-2-(((R)-3-methylmorpholino)methyl)piperazin-1-yl)acetyl)-2,6,7,8-tetrahydro-1H-pyrrolo[2,3-e][1,2,4]triazolo[4,3-a]pyridin-1-one], the figures for the IC50 in assay [1] and in assay [2] were 25 nM and 5.9 nM, respectively.
The like results for `C[C@@H]1CN(CC(=O)N2CC(C)(C)c3c2cc(Cc2ccc(F)cc2)c2nc(N(C)C=O)nn32)[C@@H](CN2CCOC[C@H]2C)CN1` [Compound 241, N-(4-(4-fluorobenzyl)-8,8-dimethyl-6-(2-((2R,5R)-5-methy 1-2-(((R)-3-methylmorpholino)methyl)piperazin-1-yl)acetyl)-7,8-dihydro-6H-pyrrolo[2,3-e][1,2,4]triazolo[1,5-a]pyridin-2-yl)-N-methylformamide] were, in that order, 15 nM and 6.3 nM.
On the same counts, the results for `C[C@@H]1CN(CC(=O)N2CC(C)(C)c3c2cc(Cc2ccc(F)cc2)c2nn(CC(F)(F)CO)c(=O)n32)[C@@H](CN2CCOC[C@H]2C)CN1` [Compound 242, 2-(2,2-difluoro-3-hydroxypropyl)-4-(4-fluorobenzyl)-8,8-dimethyl-6-(2-((2R,5R)-5-methyl-2-(((R)-3-methylmorpholino)methyl)piperazin-1-yl)acetyl)-2,6,7,8-tetrahydro-1H-pyrrolo[2,3-e][1,2,4]triazolo[4,3-a]pyridin-1-one] are 18 nM and 2.7 nM.
On the same counts, the results for `C[C@@H]1CN(CC(=O)N2CC(C)(C)c3c2cc(Cc2ccc(F)cc2)c2nn(CCN(C)C)c(=O)n32)[C@@H](CN2CCOC[C@H]2C)CN1` [Compound 243, 2-(2-(dimethylamino)ethyl)-4-(4-fluorobenzyl)-8,8-dimethyl-6-(2-((2R,5R)-5-methyl-2-(((R)-3-methylmorpholino)methyl)piperazin-1-yl)acetyl)-2,6,7,8-tetrahydro-1H-pyrrolo[2,3-e][1,2,4]triazolo[4,3-a]pyridin-1-one] are 95 nM and 14.5 nM.
For the compound `C[C@@H]1CN(CC(=O)N2CC(C)(C)c3c2cc(Cc2ccc(F)cc2)c2nc(C4(O)CC4)nn32)[C@@H](CN2CCOC[C@H]2C)CN1` [Compound 244, 1-(4-(4-fluorobenzyl)-2-(1-hydroxycyclopropyl)-8,8-dimethyl-7,8-dihydro-6H-pyrrolo[2,3-e][1,2,4]triazolo[1,5-a]pyridin-6-yl)-2-((2R,5R)-5-methyl-2-(((R)-3-methylmorpholino)methyl)piperazin-1-yl)ethan-1-one], the IC50 in assay [1] came to 3 nM; in assay [2], 4.6 nM.
Take `C[C@@H]1CN(CC(=O)N2CC(C)(C)c3c2cc(Cc2ccc(F)cc2)c2nn(Cc4cccnc4)c(=O)n32)[C@@H](CN2CCOC[C@H]2C)CN1` [Compound 245, 4-(4-fluorobenzyl)-8,8-dimethyl-6-(2-((2R,5R)-5-methyl-2-(((R)-3-methylmorpholino)methyl)piperazin-1-yl)acetyl)-2-(pyridin-3-ylmethyl)-2,6,7,8-tetrahydro-1H-pyrrolo[2,3-e][1,2,4]triazolo[4,3-a]pyridin-1-one]: the IC50 in assay [1] was found to be 5 nM; in assay [2], 6.2 nM.
On the same counts, the results for `C[C@@H]1CN(CC(=O)N2CC(C)(C)c3c2cc(Cc2ccc(F)cc2)c2nn(Cc4ccncn4)c(=O)n32)[C@@H](CN2CCOC[C@H]2C)CN1` [Compound 246, 4-(4-fluorobenzyl)-8,8-dimethyl-6-(2-((2R,5R)-5-methyl-2-(((R)-3-methylmorpholino)methyl)piperazin-1-yl)acetyl)-2-(pyrimidin-4-ylmethyl)-2,6,7,8-tetrahydro-1H-pyrrolo[2,3-e][1,2,4]triazolo[4,3-a]pyridin-1-one] are 4 nM and 3.5 nM.
Turning to `C[C@@H]1CN(CC(=O)N2CC(C)(C)c3c2cc(Cc2ccc(F)cc2)c2nc(-c4ccn[nH]4)nn32)[C@@H](CN2CCOC[C@H]2C)CN1` [Compound 247, 1-(4-(4-fluorobenzyl)-8,8-dimethyl-2-(1H-pyrazol-5-yl)-7,8-dihydro-6H-pyrrolo[2,3-e][1,2,4]triazolo[1,5-a]pyridin-6-yl)-2-((2R,5R)-5-methy 1-2-(((R)-3-methylmorpholino)methyl)piperazin-1-yl)ethan-1-one], the values for the IC50 in assay [1] and in assay [2] were 4 nM and 6.2 nM, respectively.
The like results for `COCc1nc2c(Cc3ccc(F)cc3)cc3c(n2n1)C(C)(C)CN3C(=O)CN1C[C@@H](C)NC[C@@H]1CN1CCOC[C@H]1C` [Compound 250, 1-(4-(4-fluorobenzyl)-2-(methoxymethyl)-8,8-dimethyl-7,8-dihydro-6H-pyrrolo[2,3-e][1,2,4]triazolo[1,5-a]pyridin-6-yl)-2-((2R,5R)-5-methy 1-2-(((R)-3-methylmorpholino)methyl)piperazin-1-yl)ethan-1-one] were, in that order, 18 nM and 6.1 nM.
On the same counts, the results for `C[C@@H]1CN(CC(=O)N2CC(C)(C)c3c2cc(Cc2ccc(F)cc2)c2nc(C(=O)N(C)C)nn32)[C@@H](CN2CCOC[C@H]2C)CN1` [Compound 251, 4-(4-fluorobenzyl)-N,N,8,8-tetramethyl-6-(2-((2R,5R)-5-methyl-2-(((R)-3-methylmorpholino)methyl)piperazin-1-yl)acetyl)-7,8-dihydro-6H-pyrrolo[2,3-e][1,2,4]triazolo[1,5-a]pyridine-2-carboxamide] are 130 nM and 29.6 nM.
On the same counts, the results for `[2H]C([2H])([2H])n1nc2c(Cc3ccc(F)cc3)cc3c(n2c1=O)C(C)(C)CN3C(=O)CN1C[C@@H](C)NC[C@@H]1CN1CCOC[C@H]1C` [Compound 252] are 32 nM and 5.3 nM.
In the case of `C[C@@H]1CN(CC(=O)N2CC(C)(C)c3c2cc(Cc2ccc(F)cc2)c2nn(Cc4ccncc4)c(=O)n32)[C@@H](CN2CCOC[C@H]2C)CN1` [Compound 254, 4-(4-fluorobenzyl)-8,8-dimethyl-6-(2-((2R,5R)-5-methyl-2-(((R)-3-methylmorpholino)methyl)piperazin-1-yl)acetyl)-2-(pyridin-4-ylmethyl)-2,6,7,8-tetrahydro-1H-pyrrolo[2,3-e][1,2,4]triazolo[4,3-a]pyridin-1-one], the IC50 in assay [1] stood at 69 nM; in assay [2], 3.8 nM.

The record behind these values is US20250179073A1, “TRICYCLIC HETEROCYCLE COMPOUNDS AS IAP ANTAGONISTS” (Ascentage Pharma (Suzhou) Co., Ltd., priority 2022, published 2025).
